Test results: patent US12390469B2, “SHP2 inhibitor monotherapy and uses thereof” (HUYABIO International, LLC, priority 2021, dated 2025)
Entries after “also recorded” stand apart in the source; their conditions may differ.

How the values were obtained:
U87MG = assay: Cell viability assay (CellTiter-Glo), U87MG; type: cell-based; settings: Day 5, CellTiter-Glo
Description: (§1) Cell lines and maintenance: All cell lines used for in vitro and in vivo studies were supplied as part of Crown Biosciences cell bank except KYSE520, which was provided by HUYABIO. All cell lines were maintained according to source at 37° C. and 5% CO2 unless otherwise noted. Human Lung cancer cell lines NCI-H358, HCC827, Esophageal cancer cell line KYSE520, Stomach cancer cell line NCI-N87 and Mouse Colon cancer cell line MC38 were cultured in RPMI1640+10% FBS. Pancreatic cell line MiaPaca-2 was cultured in MDME+10% FBS+2.5% HS. Pancreatic cancer cell line CAPAN-1 was cultured in IMDM+20% FBS. Brain cancer cell line U87MG was cultured in MEM+0.01 mM NEAA+10% FBS. Lung cancer cell line HCC827-ER1 (Derived from HCC827 at Crown Biosciences) was cultured in RPMI1640+10% FBS+42 μM erlotinib. Lung cancer cell line NCI-H1975 (developed at Synthego Corporation) was cultured in RPMI1640+10% FBS+100 μg/ml Hygromycin (Sun, 2020).
(§2) Cell Viability Assay: For cell cytotoxicity assays, cells were plated in 96-well plates and plating densities were determined on the basis of Crown Biosciences Cell line Database. Cells were plated at 2000 cells/well. Twenty four hours after plating, cells were treated with inhibitors at the indicated compound concentrations. On Day 5, cells were lysed with CellTiter-Glo® Luminescent Cell Viability Assay reagent (Promega) and luminescence was read using the EnVision Multi-plate reader. To calculate IC50 values, a dose-response curve is generated using a nonlinear regression model with a sigmoidal dose response. The formula of surviving rate is shown below. IC50 values were automatically generated by GraphPad Prism 8.0. The results of these assays are depicted in FIG. 1 and Table 1, and further in FIG. 9A (HCC827-ER1) and 9B (NCI-H1975 (L858R/T790M/C797S)).

NCI-H1975 = assay: Cell viability assay (CellTiter-Glo), NCI-H1975; type: cell-based; settings: Day 5, CellTiter-Glo
Description: as §1, §2

NCI-N87 = assay: Cell viability assay (CellTiter-Glo), NCI-N87; type: cell-based, human; settings: Day 5, CellTiter-Glo
Description: as §1, §2

Capan-1 = assay: Cell viability assay (CellTiter-Glo), Capan-1; type: cell-based; settings: Day 5, CellTiter-Glo
Description: as §1
(§3) Cell Viability Assay: For cell cytotoxicity assays, cells were plated in 96-well plates and plating densities were determined on the basis of Crown Biosciences Cell line Database. Cells were plated at 2000 cells/well. […] On Day 5, cells were lysed with CellTiter-Glo® Luminescent Cell Viability Assay reagent (Promega) and luminescence was read using the EnVision Multi-plate reader. […]

MIAPaCa-2 = assay: Cell viability assay (CellTiter-Glo), MIAPaCa-2; type: cell-based; settings: Day 5, CellTiter-Glo
Description: as §1, §3

KYSE 520 = assay: Cell viability assay (CellTiter-Glo), KYSE 520; type: cell-based, human; settings: Day 5, CellTiter-Glo
Description: as §1, §2

HCC827 = assay: Cell viability assay (CellTiter-Glo), HCC827; type: cell-based, human; settings: Day 5, CellTiter-Glo
Description: as §1, §2

NCI-H358 = assay: Cell viability assay (CellTiter-Glo), NCI-H358; type: cell-based, human; settings: Day 5, CellTiter-Glo
Description: as §1, §2

KC/GRO = assay: Cytokine detection assay (V-Plex Proinflammatory Panel 1 Mouse Kit) in plasma; type: in vivo; settings: FIG. 11; tumor bearing animals, 2 hours post last dose; versus GH21001 (TNO-155) and RMC-4550; listed as Formula (Ia)
Description: Cytokine detection assay: V-Plex Proinflammatory Panel 1 Mouse Kit (Mesoscale Discovery) was used to determine cytokine levels in plasma isolated from tumor bearing animals 2 hours post last dose. Plasma from tumor bearing animals was analyzed as described by the manufacture's guidelines. Briefly, diluted plasma is introduced to the MSD plate pre-coated with capture antibodies to KC/GRO. After incubation, samples are washed and incubated with secondary detection antibody, (MSD SULFO-TAG™). Electrochemiluminescence detection from the assay is analyzed on the Meso Scale Discovery platform and cytokine levels calculated according to manufacturer's control samples.

[1] = system: lung cancer cell line HCC827-ER1; assay: Cell viability assay, HCC827-ER1 (FIG. 9A); type: cell-based, human
Description: as §1, §3

[2] = system: NCI-H1975 (L858R/T790M/C797S); assay: Cell viability assay, Osimertinib resistant NCI-H1975 (FIG. 9B); type: cell-based
Description: as §1, §3

MC38 tumors = assay: Tumor and blood immunotyping (FACS) in MC38 model; type: in vivo, mouse
Description: All cell lines were maintained in culture and cells in exponential growth phase were harvested and quantitated by cell counter before tumor inoculation. MC38 tumor cells (1×10^6) in 0.1 ml of PBS were inoculated into the right front flank of female C57/Bl animals, mean tumor size approximately 112 mm^3 at the start of treatment. NCI-H1975 (EGFR L858R/[…]/C797S) tumor cells (1×10^7) in 0.1 ml of PBS mixed with Matrigel (1:1) inoculated into female NOD/SCID animals, mean tumor approximately 200 mm^3 at the start of treatment. HCC827-ER1 tumor cells (5×10^7) in 0.1 ml of PBS mixed with Matrigel (1:1) inoculated into female Balb/C Nude animals, mean tumor approximately 325 mm^3 at the start of treatment.
The date of randomization and treatment initiation was denoted as day 0. Tumor volumes were measured twice per week in two dimensions using a caliper, and the volume will be expressed in mm^3 using the formula: V=(L×W×W)/2, where V is tumor volume, L is tumor length (the longest tumor dimension) and W is tumor width (the longest tumor dimension perpendicular to L). Dosing volume was 10 mL/kg/day. GH21001 and GH21005 were dissolved in HP-β-CD with 200 ml of 50 mM sodium citrate (pH=4.2). Anti-PD-1 and Rat IgG2a were diluted in PBS. RMC-4550 was diluted in 1% Capitsol in 50 mM sodium citrate (pH=5.0) 0.5% dosing solution of osimertinib was diluted in 2% DMSO/30% PEG300. The results of these experiments are depicted in FIG. 2A-B (MC38 tumors) and FIG. 10A-10B (NCI-H1975 (L858R/T790M/C797S) tumors). The results for HCC827 CDX model are depicted in FIG. 12A-B. Upon termination, tumors were collected. A portion of the tumor was minced and snap frozen immediately for protein isolation or tumor tissue was dissociated for FACs analysis. Another portion of the tumor was fixed in 10% neutral buffered formalin prior to processing into paraffin blocks.
Tumor dissociation: Upon termination animals bearing MC38 tumors, tumors and blood was harvested 12 hours post last dose. Tumors were enzymatically and mechanically dissociated using The Tumor Dissociation Kit (130-096-730) Miltenyi Biotec MACS Technology. Mononuclear blood cells (PBMCs) were isolated from whole blood using Histopaque-1077 (Sigma).
Tumor cell suspension, whole lysed blood or isolated PBMCs were resuspended and blocked in staining buffer with 1 μg/ml Fc-Block (Mouse BD Fc Block™ CAT #553141). All antibodies were diluted in Fc Blocking buffer except FoxP3 which was diluted in Permeabilization Buffer. Antibodies were diluted according to Crown Biosciences optimization. Cell surface markers CD45, CD4, CD335, CD11b, Gr-1 were purchased from Biolegend. CD3 was purchased from BD Biosciences. CD8, FoxP3 and LD BD were purchased from eBiosciences. Data was collected on a cytometer and data was analyzed using Kaluza Analysis Software. The results of these experiments are depicted in FIG. 3 (macrophages), FIG. 4 (monocytes), FIG. 5 (granulocytes), FIG. 6 (CD3+ cells), FIG. 7 (CD4+ cells), and FIG. 8 (CD8+ cells).

cancer cell lines = assay: Cell proliferation assays, cell line panel (FIG. 1); type: cell-based; settings: compared with GH21001 (TNO-155), RMC-4550, Cisplatin
Description: as §1, §3

Compound	IC50 (U87MG) [nM]	IC50 (NCI-H1975) [nM]	IC50 (NCI-N87) [nM]	IC50 (KYSE 520) [nM]	IC50 (HCC827) [nM]	IC50 (NCI-H358) [nM]	IC50 (U87MG; Homo sapiens, U-87 MG, 120 h) [nM]	IC50 (NCI-N87; Homo sapiens, 120 h) [nM]	IC50 (KYSE 520; Homo sapiens, 120 h) [nM]	IC50 (HCC827; Homo sapiens, 120 h) [nM]	IC50 (NCI-H358; Homo sapiens, 120 h) [nM]	also measured
N.N.[Cl][Pt][Cl] [Cisplatin]	1580	3990	2350	6800	4790	4850						IC50 (Capan-1): 270 nM; IC50 (MIAPaCa-2): 7150 nM
C[C@@H]1OCC2(CCN(c3cnc(Sc4ccnc(N)c4Cl)c(N)n3)CC2)[C@@H]1N [GH21001]							1530	230	450	410	460	IC50 (Capan-1; Homo sapiens, 120 h): 6060 nM
C[C@@H]1OCC2(CCN(c3cnc(Sc4cccc(NC(=O)c5c(O)nc6n(c5=O)CCCC6)c4Cl)cn3)CC2)[C@@H]1N [GH21005, N-(3-((5-((3S,4S)-4-amino-3-methyl-2-oxa-8-azaspiro[4.5]decan-8-yl)pyrazin-2-yl)thio)-2-chlorophenyl)-2-hydroxy-4-oxo-6,7,8,9-tetrahydro-4H-pyrido[1,2-a]pyrimidine-3-carboxamide]							230	10	60	20	30	KC/GRO level in plasma (KC/GRO): significantly reduced KC/GRO as compared to GH21001 (TNO-155) and RMC-4550; also recorded: reduces KC/GRO significantly more than GH21001 (TNO-155) and RMC-4550; viability of lung cancer cell line HCC827-ER1 [1]: reduces viability; IC50 (NCI-H1975; Homo sapiens, 120 h): 210 nM; viability of Osimertinib resistant cancer cell line NCI-H1975 (L858R/T790M/C797S) [2]: reduces viability; macrophage populations in MC38 tumors (MC38 tumors; FIG. 3, harvested 12 hours post last dose): reduces macrophage populations; monocyte populations in MC38 tumors (MC38 tumors; FIG. 4, harvested 12 hours post last dose): increases monocyte populations; granulocyte populations in MC38 tumors (MC38 tumors; FIG. 5, harvested 12 hours post last dose): increases granulocyte populations; circulating CD3+ cell populations (MC38 tumors; FIG. 6, MC38 model, blood 12 hours post last dose): increases circulating CD3+ cell populations; circulating CD4+ cell populations (MC38 tumors; FIG. 7, MC38 model, blood 12 hours post last dose): increases circulating CD4+ cell populations; circulating CD8+ cell populations (MC38 tumors; FIG. 8, MC38 model, blood 12 hours post last dose): increases circulating CD8+ cell populations; potency in cell proliferation assays versus other agents (cancer cell lines): greater potency in cell proliferation assays than other agents
Cc1nc(N2CCC3(CC2)CO[C@@H](C)[C@H]3N)c(CO)nc1-c1cccc(Cl)c1Cl [RMC-4550]	3900	1440	260	490	690	440						
